Assay results as given in patent US11891365B2, “3-alkyl-4-amido-bicyclic [4,5,0] hydroxamic acids as HDAC inhibitors” (Valo Health, Inc., priority 2015, dated 2024).

molecular target: T1, Full length human recombinant HDAC6 protein (Homo sapiens, UniProt Q9UBN7); experiment: In vitro histone deacetylase assay: enzymatic HDAC6 electrophoretic mobility shift assay; type: biochemical; settings: 1 nM enzyme, 2 μM peptide substrate RHKK(Ac)-NH2, 25° C., 12 concentrations; read-out: Inhibitory Concentration (IC50) Values against HDAC6, Activity Range
T1 sequence (Q9UBN7 1-1215): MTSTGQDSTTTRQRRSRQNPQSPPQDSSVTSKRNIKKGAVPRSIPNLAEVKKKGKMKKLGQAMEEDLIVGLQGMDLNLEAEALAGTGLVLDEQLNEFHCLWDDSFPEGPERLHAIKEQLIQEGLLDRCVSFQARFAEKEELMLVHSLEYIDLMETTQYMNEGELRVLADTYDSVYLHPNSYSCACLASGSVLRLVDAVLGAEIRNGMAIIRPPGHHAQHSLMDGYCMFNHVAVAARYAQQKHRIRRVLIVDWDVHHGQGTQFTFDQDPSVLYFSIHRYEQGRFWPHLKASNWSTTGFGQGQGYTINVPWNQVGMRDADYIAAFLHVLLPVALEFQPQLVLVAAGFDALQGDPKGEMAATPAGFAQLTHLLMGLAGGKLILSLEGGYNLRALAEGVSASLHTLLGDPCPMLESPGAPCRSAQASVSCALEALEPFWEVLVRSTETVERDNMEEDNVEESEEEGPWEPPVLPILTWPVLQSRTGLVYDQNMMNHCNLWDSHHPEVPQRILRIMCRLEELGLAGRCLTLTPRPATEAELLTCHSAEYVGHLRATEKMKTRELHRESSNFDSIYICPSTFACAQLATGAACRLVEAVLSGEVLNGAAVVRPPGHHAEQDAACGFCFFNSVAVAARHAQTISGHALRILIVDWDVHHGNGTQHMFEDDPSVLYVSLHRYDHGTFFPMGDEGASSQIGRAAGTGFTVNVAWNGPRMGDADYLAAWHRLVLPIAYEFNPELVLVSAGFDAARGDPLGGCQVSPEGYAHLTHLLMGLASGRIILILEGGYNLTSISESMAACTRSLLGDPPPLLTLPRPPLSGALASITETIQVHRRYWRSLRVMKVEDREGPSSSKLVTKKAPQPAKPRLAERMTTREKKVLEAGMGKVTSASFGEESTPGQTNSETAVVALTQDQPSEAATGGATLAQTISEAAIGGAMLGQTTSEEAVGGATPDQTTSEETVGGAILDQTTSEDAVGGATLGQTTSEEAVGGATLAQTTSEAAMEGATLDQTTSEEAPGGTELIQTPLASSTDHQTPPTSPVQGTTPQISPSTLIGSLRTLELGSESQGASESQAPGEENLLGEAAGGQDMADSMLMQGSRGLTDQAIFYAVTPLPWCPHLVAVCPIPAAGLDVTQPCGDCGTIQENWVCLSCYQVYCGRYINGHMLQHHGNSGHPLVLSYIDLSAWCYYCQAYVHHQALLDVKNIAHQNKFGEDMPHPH

Structure (SMILES) | IC50 [nM]
O=C(NO)c1ccc2c(c1)OCCN(C(=O)[C@H]1CCOC1)C2 [(S)-N-hydroxy-4-(tetrahydrofuran-3-carbonyl)-2,3,4,5-tetrahydrobenzo[f][1,4]oxazepine-8-carboxamide] | ≤ 100
CC(C)C(=O)N1Cc2ccc(C(=O)NO)cc2OC[C@@H]1C [(S)-N-hydroxy-4-isobutyryl-3-methyl-2,3,4,5-tetrahydrobenzo[f][1,4]oxazepine-8-carboxamide] | ≤ 100
CC(C)[C@H]1c2ccc(C(=O)NO)cc2OCCN1C(=O)C1COC1 [(S)-N-hydroxy-5-isopropyl-4-(oxetane-3-carbonyl)-2,3,4,5-tetrahydrobenzo[f][1,4]oxazepine-8-carboxamide] | > 500
CC(C)[C@H]1c2ccc(C(=O)NO)cc2OCCN1C(=O)C1CCOCC1 [(S)-N-hydroxy-5-isopropyl-4-(tetrahydro-2H-pyran-4-carbonyl)-2,3,4,5-tetrahydrobenzo[f][1,4]oxazepine-8-carboxamide] | > 500
C[C@H]1c2cc(C(=O)NO)ccc2OCCN1C(=O)C1(C)CCC1 [(S)-N-hydroxy-5-methyl-4-(1-methylcyclobutane-1-carbonyl)-2,3,4,5-tetrahydrobenzo[f][1,4]oxazepine-7-carboxamide] | 100 to 500
C[C@H]1c2ccc(C(=O)NO)cc2OCCN1C(=O)C1(C)CCC1 [(S)-N-hydroxy-5-methyl-4-(1-methylcyclobutane-1-carbonyl)-2,3,4,5-tetrahydrobenzo[f][1,4]oxazepine-8-carboxamide] | ≤ 100
C[C@H]1c2ccc(C(=O)NO)cc2OCCN1C(=O)C1(C)COC1 [(S)-N-hydroxy-5-methyl-4-(3-methyloxetane-3-carbonyl)-2,3,4,5-tetrahydrobenzo[f][1,4]oxazepine-8-carboxamide] | ≤ 100
C[C@H]1c2ccc(C(=O)NO)cc2OCCN1C(=O)C1(C)CCOCC1 [(S)-N-hydroxy-5-methyl-4-(4-methyltetrahydro-2H-pyran-4-carbonyl)-2,3,4,5-tetrahydrobenzo[f][1,4]oxazepine-8-carboxamide] | ≤ 100
C[C@H]1c2ccc(C(=O)NO)cc2OCCN1C(=O)[C@]1(C)CCCOC1 [(S)-N-hydroxy-5-methyl-4-((R)-3-methyltetrahydro-2H-pyran-3-carbonyl)-2,3,4,5-tetrahydrobenzo[f][1,4]oxazepine-8-carboxamide] | ≤ 100
C[C@H]1c2ccc(C(=O)NO)cc2OCCN1C(=O)[C@@H]1CCCOC1 [(S)-N-hydroxy-5-methyl-4-((R)-tetrahydro-2H-pyran-3-carbonyl)-2,3,4,5-tetrahydrobenzo[f][1,4]oxazepine-8-carboxamide] | ≤ 100
C[C@H]1c2ccc(C(=O)NO)cc2OCCN1C(=O)[C@@H]1CCOC1 [(S)-N-hydroxy-5-methyl-4-((R)-tetrahydrofuran-3-carbonyl)-2,3,4,5-tetrahydrobenzo[f][1,4]oxazepine-8-carboxamide] | ≤ 100
C[C@H]1c2ccc(C(=O)NO)cc2OCCN1C(=O)[C@@]1(C)CCCOC1 [(S)-N-hydroxy-5-methyl-4-((S)-3-methyltetrahydro-2H-pyran-3-carbonyl)-2,3,4,5-tetrahydrobenzo[f][1,4]oxazepine-8-carboxamide] | ≤ 100
C[C@H]1c2ccc(C(=O)NO)cc2OCCN1C(=O)[C@H]1CCCOC1 [(S)-N-hydroxy-5-methyl-4-((S)-tetrahydro-2H-pyran-3-carbonyl)-2,3,4,5-tetrahydrobenzo[f][1,4]oxazepine-8-carboxamide] | ≤ 100
C[C@H]1c2ccc(C(=O)NO)cc2OCCN1C(=O)[C@H]1CCOC1 [(S)-N-hydroxy-5-methyl-4-((S)-tetrahydrofuran-3-carbonyl)-2,3,4,5-tetrahydrobenzo[f][1,4]oxazepine-8-carboxamide] | ≤ 100
C[C@H]1c2ccc(C(=O)NO)cc2OCCN1C(=O)C1COC1 [(S)-N-hydroxy-5-methyl-4-(oxetane-3-carbonyl)-2,3,4,5-tetrahydrobenzo[f][1,4]oxazepine-8-carboxamide] | ≤ 100
C[C@H]1c2cc(C(=O)NO)ccc2OCCN1C(=O)C1CCOCC1 [(S)-N-hydroxy-5-methyl-4-(tetrahydro-2H-pyran-4-carbonyl)-2,3,4,5-tetrahydrobenzo[f][1,4]oxazepine-7-carboxamide] | > 500

Next, values leading:

IC50 [nM] | Structure (SMILES)
≤ 100 | C[C@H]1c2ccc(C(=O)NO)cc2OCCN1C(=O)C1CCOCC1 [(S)-N-hydroxy-5-methyl-4-(tetrahydro-2H-pyran-4-carbonyl)-2,3,4,5-tetrahydrobenzo[f][1,4]oxazepine-8-carboxamide]
100 to 500 | CN(C)C(=O)C1CN(C(=O)C2CCOCC2)Cc2ccc(C(=O)NO)cc2O1 (stereo not shown) [N8-hydroxy-N2,N2-dimethyl-4-(tetrahydro-2H-pyran-4-carbonyl)-2,3,4,5-tetrahydrobenzo[f][1,4]oxazepine-2,8-dicarboxamide]
> 500 | CC1(C(=O)N2Cc3ccc(C(=O)NO)cc3OCC2(C)C)CCC1 [N-hydroxy-3,3-dimethyl-4-(1-methylcyclobutane-1-carbonyl)-2,3,4,5-tetrahydrobenzo[f][1,4]oxazepine-8-carboxamide]
≤ 100 | O=C(NO)c1ccc2c(c1)OCCN(C(=O)C1(c3ccccc3C(F)(F)F)CC1)C2 [N-hydroxy-4-(1-(2-(trifluoromethyl)phenyl)cyclopropane-1-carbonyl)-2,3,4,5-tetrahydrobenzo[f][1,4]oxazepine-8-carboxamide]
≤ 100 | O=C(NO)c1ccc2c(c1)OCCN(C(=O)C1(c3cccc(C(F)(F)F)c3)CC1)C2 [N-hydroxy-4-(1-(3-(trifluoromethyl)phenyl)cyclopropane-1-carbonyl)-2,3,4,5-tetrahydrobenzo[f][1,4]oxazepine-8-carboxamide]
≤ 100 | COc1cccc(C2(C(=O)N3CCOc4cc(C(=O)NO)ccc4C3)CC2)c1 [N-hydroxy-4-(1-(3-methoxyphenyl)cyclopropane-1-carbonyl)-2,3,4,5-tetrahydrobenzo[f][1,4]oxazepine-8-carboxamide]
≤ 100 | O=C(NO)c1ccc2c(c1)OCCN(C(=O)C1(c3ccc(C(F)(F)F)cc3)CC1)C2 [N-hydroxy-4-(1-(4-(trifluoromethyl)phenyl)cyclopropane-1-carbonyl)-2,3,4,5-tetrahydrobenzo[f][1,4]oxazepine-8-carboxamide]
≤ 100 | COc1ccc(C2(C(=O)N3CCOc4cc(C(=O)NO)ccc4C3)CC2)cc1 [N-hydroxy-4-(1-(4-methoxyphenyl)cyclopropane-1-carbonyl)-2,3,4,5-tetrahydrobenzo[f][1,4]oxazepine-8-carboxamide]
≤ 100 | COCC1(C(=O)N2CCOc3cc(C(=O)NO)ccc3C2)CCC1 [N-hydroxy-4-(1-(methoxymethyl)cyclobutane-1-carbonyl)-2,3,4,5-tetrahydrobenzo[f][1,4]oxazepine-8-carboxamide]
≤ 100 | COCC1(C(=O)N2CCOc3cc(C(=O)NO)ccc3C2)CC1 [N-hydroxy-4-(1-(methoxymethyl)cyclopropane-1-carbonyl)-2,3,4,5-tetrahydrobenzo[f][1,4]oxazepine-8-carboxamide]
≤ 100 | O=C(NO)c1ccc2c(c1)OCCN(C(=O)C1(S(=O)(=O)c3ccccc3)CC1)C2 [N-hydroxy-4-(1-(phenylsulfonyl)cyclopropane-1-carbonyl)-2,3,4,5-tetrahydrobenzo[f][1,4]oxazepine-8-carboxamide]
≤ 100 | O=C(NO)c1ccc2c(c1)OCCN(C(=O)C1(c3cnccn3)CC1)C2 [N-hydroxy-4-(1-(pyrazin-2-yl)cyclopropane-1-carbonyl)-2,3,4,5-tetrahydrobenzo[f][1,4]oxazepine-8-carboxamide]
≤ 100 | O=C(NO)c1ccc2c(c1)OCCN(C(=O)C1(c3ccccn3)CC1)C2 [N-hydroxy-4-(1-(pyridin-2-yl)cyclopropane-1-carbonyl)-2,3,4,5-tetrahydrobenzo[f][1,4]oxazepine-8-carboxamide]
≤ 100 | O=C(NO)c1ccc2c(c1)OCCN(C(=O)C1(c3ccncc3)CC1)C2 [N-hydroxy-4-(1-(pyridin-4-yl)cyclopropane-1-carbonyl)-2,3,4,5-tetrahydrobenzo[f][1,4]oxazepine-8-carboxamide]
≤ 100 | O=C(NO)c1ccc2c(c1)OCCN(C(=O)C1(c3cccs3)CC1)C2 [N-hydroxy-4-(1-(thiophen-2-yl)cyclopropane-1-carbonyl)-2,3,4,5-tetrahydrobenzo[f][1,4]oxazepine-8-carboxamide]
